Data taken from patent US20250326933A1, “SOLID COMPOSITION OF INDOCYANINE GREEN AND SODIUM FLUORESCEIN” (ICROM Srl, priority 2021, published 2025).

Columns and labels:
[1] = Solubility in water evaluated by filtration of the solution on a syringe filter; format: physicochemical
[2] = aqueous solution; cited from earlier work
[3] = Stability of the compounds of formula (IA) and (IB) and of their solid composition by HPLC; format: physicochemical; details: for Stability by HPLC as such and after freeze-drying: (IA) with or without iodide
Description: The formulations from 13 to 18 and the compounds used for the preparation thereof were analysed with the following analytical method. The analysis confirms that the purity of IA >99.5% injected as such and the stability of the formulation after freeze-drying, evaluated based on the fact that there is no other peak in the chromatogram except for Ia and Ib.
Sample solution: 1.5 mg/ml in methanol. Inject immediately after preparing the solution. The mixtures of formula (IA) and (IB) described in Table 2 were prepared and then appropriately diluted and injected in HPLC to evaluate the profile at T0.
The same mixtures were re-prepared exactly as described in the experimental part, dry frozen and controlled in HPLC after freeze-drying, 7 days later. During these 7 days the samples were stored inside their amber glass vials in a protective atmosphere at room temperature. The freeze-dried products were dissolved in water at the same dilution as the not freeze-dried samples.
The stability of the freeze-dried powders stored in the vials was evaluated using HPLC even after 6 months. The freeze-dried products are stable, even without the presence of sodium iodide, formulation 9.
The reconstituted solution was stable if stored at 4-10° C. for at least 24 hours (formulations 1, 3, 5 and 7).

[4] = after intravenous administration; cited from earlier work
[5] = freeze-dried, 10 mg/ml in water
[6] = not freeze-dried, 5 mg/ml in water
[7] = not freeze-dried, 10 mg/ml in water

Row | SMILES | Filtration on 0.45 μm syringe filter: Pressure ([1]; freeze-dried, 5 mg/ml in water) | Filtration on 0.45 μm syringe filter: ml filtered ([1]; freeze-dried, 5 mg/ml in water) | Filtration on 0.45 μm syringe filter: Pressure [1, 5] | Filtration on 0.45 μm syringe filter: ml filtered [1, 5] | Filtration on 0.45 μm syringe filter: Pressure [1, 6] | Filtration on 0.45 μm syringe filter: ml filtered [1, 6] | Filtration on 0.45 μm syringe filter: Pressure [1, 7] | Filtration on 0.45 μm syringe filter: ml filtered [1, 7] | Decomposition when dissolved in water [2] | Stability by HPLC as such and after freeze-drying [3] | Degradation by freeze-drying (HPLC) ([3]; as such or in mixture with (IB), with or without sodium iodide) | Time to complete removal by the kidneys [4]
1 | CC1(C)C(/C=C/C=C/C=C/C=C2\N(CCCCS(=O)(=O)[O-])c3ccc4ccccc4c3C2(C)C)=[N+](CCCCS(=O)(=O)[O-])c2ccc3ccccc3c21.[Na+] [069/079] | Low | 10 mL | Low | 10 mL | Block | 0 mL | Block | 0 mL | – | – | – | –
2 | CC1(C)C(/C=C/C=C/C=C/C=C2\N(CCCCS(=O)(=O)[O-])c3ccc4ccccc4c3C2(C)C)=[N+](CCCCS(=O)(=O)[O-])c2ccc3ccccc3c21.[Na+] [compound of formula (IA), 1H-benz[e]indole, 2-[7-[1,3-dihydro-1,1-dimethyl-3-(4-sulfobutyl)-2H-benz[e]indol-2-ylidene]-1,3,5-heptatrienyl]-1,1-dimethyl-3-(4-sulfobutyl) hydroxide, inner salt, sodium salt] | – | – | – | – | – | – | – | – | non-detectable decomposition for a few hours | stable | does not degrade | –
3 | O=C([O-])c1ccccc1-c1c2ccc(=O)cc-2oc2cc([O-])ccc12.[Na+].[Na+] [compound of formula (IB), sodium fluorescein] | – | – | – | – | – | – | – | – | – | stable | – | 24 to 36 h
